Test results published in patent US12459951B2, “Compounds that interact with RAS superfamily proteins for treatment of cancers, inflammatory diseases, rasopathies, and fibrotic disease” (SHY Therapeutics, LLC, priority 2022, dated 2025).

Tests used:
[1] = test system: Akt phosphorylation; assay: Akt Phosphorylation Assay (western blot), Panc-1; format: cell-based, human; conditions: at 10 μM, * = activation
Method in brief: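 Phospho-Akt (Ser473) was measured by western blot in lysates of KRas G12D Panc-1 cells exposed to test compound for 6 h at 37 °C, either at 10 μM final with 0.3% DMSO or as serial dilutions for IC50. One format used overnight 0.5% FBS starvation followed by a 15 min pulse of 1.5 ng/ml EGF. The other used cells in 10% FBS with no stimulation.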

[2] = test system: IL6; assay: IL-6 Quantification Assay (ELISA), LPS-stimulated RAW 264.7; format: cell-based; set-up: inhibition: dose or concentration left out as unconfirmed; conditions: Mus musculus, RAW264.7; read-out: IL-6: % inh.
[3] = test system: TNF-alpha; assay: TNF-alpha Quantification Assay (ELISA), LPS-stimulated RAW 264.7; format: cell-based; conditions: Mus musculus, RAW264.7; at 10 μM; read-out: TNFα: % inh.
[4] = test system: KRas G12D mutant; assay: Ras GTP Binding Domain Inhibition Assay (Ras Superfamily Assay); conditions: at 20 μM; for KRas G12D mutant + SOS: % inh.: with SOS; for KRas G12D mutant: % inh.: without SOS
Method in brief: (§1)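 His-tagged GTPases immobilised on nickel-coated plates, pre-incubated with compound (20 μM single point, or serial dilution for IC50) 3 h at room temperature, with or without 10-30 μg/mL Sos (residues 556-1049) in the final hour. Bound Cy3- or Cy5-GTP (100 nM, 45 min) measured by fluorescence after washing.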

[5] = test system: KRas wild type; assay: as above; conditions: at 20 μM; for KRas wild type + SOS: % inh.: with SOS; for KRas wild type: % inh.: without SOS
Method in brief: as §1

[6] = target: T1, Rac-1 (Homo sapiens, UniProt P63000); assay: as above; conditions: read-out: Rac-1: % inh.
T1 construct: made in house
Method in brief: as §1

Compound | % inh of Akt phosphorylation in Panc-1 [1] | inhibition [2] | inhibition at 10 µM [3] | KRas G12D mutant + SOS: % inh. [4] | KRas G12D mutant: % inh. [4] | KRas wild type + SOS: % inh. [5] | KRas wild type: % inh. [5] | inhibition at 20 µM [6]
Cc1c(-c2ccn(C)n2)cn2nc(-c3nccn3C)nc(Nc3cc(-c4ccncc4)[nH]n3)c12 [Compound 266, 5-Methyl-2-(1-methyl-1H-imidazol-2-yl)-6-(1-methyl-1H-pyrazol-3-yl)-N-(5-(pyridin-4-yl)-1H-pyrazol-3-yl)pyrrolo[2,1-f][1,2,4]triazin-4-amine] | D* (85-100% activation) | 25 to 49% | 0% | D (D = 76-100% inhibition) | D (D = 76-100% inhibition) | C (C = 50-75% inhibition) | D (D = 76-100% inhibition) | 76 to 100%
CCOc1cc(Nc2nc(-c3nccn3C)nn3cc(-c4ccn(C)n4)c(C)c23)n[nH]1 [Compound 260, N-(5-Ethoxy-1H-pyrazol-3-yl)-5-methyl-2-(1-methyl-1H-imidazol-2-yl)-6-(1-methyl-1H-pyrazol-3-yl)pyrrolo[2,1-f][1,2,4]triazin-4-amine] | C* (46-84% activation) | 75 to 100% | 25 to 49% | C (C = 50-75% inhibition) | C (C = 50-75% inhibition) | D (D = 76-100% inhibition) | D (D = 76-100% inhibition) | 50 to 75%
Cc1c(-c2ccn(C)n2)cn2nc(-c3nccn3C)nc(Nc3ccc(N4CCOCC4)cn3)c12 [Compound 247, 5-Methyl-2-(1-methyl-1H-imidazol-2-yl)-6-(1-methyl-1H-pyrazol-3-yl)-N-(5-morpholinopyridin-2-yl)pyrrolo[2,1-f][1,2,4]triazin-4-amine] | D* (85-100% activation) | 75 to 100% | 50 to 74% | D (D = 76-100% inhibition) | D (D = 76-100% inhibition) | D (D = 76-100% inhibition) | D (D = 76-100% inhibition) | 76 to 100%
Cc1c(-c2ccn(C)n2)cn2nc(-c3nccn3C)nc(-n3[nH]c(N)cc3=O)c12 [Compound 261, 5-Amino-2-(5-methyl-2-(1-methyl-1H-imidazol-2-yl)-6-(1-methyl-1H-pyrazol-3-yl)pyrrolo[2,1-f][1,2,4]triazin-4-yl)-1,2-dihydro-3H-pyrazol-3-one] | B (26-49% inhibition) | 50 to 74% | 1 to 24% | C (C = 50-75% inhibition) | D (D = 76-100% inhibition) | C (C = 50-75% inhibition) | C (C = 50-75% inhibition) | 76 to 100%
Cc1cc(Nc2nc(-c3nccn3C)nn3cc(-c4ccn(C)n4)c(C)c23)n[nH]1 [Compound 255, 5-Methyl-2-(1-methyl-1H-imidazol-2-yl)-6-(1-methyl-1H-pyrazol-3-yl)-N-(5-methyl-1H-pyrazol-3-yl)pyrrolo[2,1-f][1,2,4]triazin-4-amine] | D* (85-100% activation) | 50 to 74% | 1 to 24% | D (D = 76-100% inhibition) | D (D = 76-100% inhibition) | D (D = 76-100% inhibition) |  | 76 to 100%
COc1ccnc(Nc2nc(-c3nccn3C)nn3cc(-c4ccn(C)n4)c(C4CC4)c23)c1 [Compound 276, 5-Cyclopropyl-N-(4-methoxypyridin-2-yl)-2-(1-methyl-1H-imidazol-2-yl)-6-(1-methyl-1H-pyrazol-3-yl)pyrrolo[2,1-f][1,2,4]triazin-4-amine] | D* (85-100% activation) | 50 to 74% | 0% | D (D = 76-100% inhibition) | D (D = 76-100% inhibition) | D (D = 76-100% inhibition) | D (D = 76-100% inhibition) | 76 to 100%
